Molecular target: T1, PI3Kγ (purified recombinant p101/p110γ protein) (Homo sapiens, UniProt P48736)
T1 construct: HA; made in house; host or cells: Spodoptera frugiperda Sf9 cells (baculovirus coinfection)
Experiment: PI3Kγ in vitro kinase assay
Assay type: biochemical
Details: 20 μM ATP, 25 μM PIP2, G protein β1/γ2 subunits
Description: Spodtera frugiperda cells, grown in ESF921 media, were coinfected with baculovirus expressing a glu-tagged p101 and baculovirus expressing an HA-tagged […], at a 3:1 ratio of p101 baculovirus to p110γ baculovirus. Sf9 cells were grown to 1×10^7 total cells/mL in 10 L bioreactors and harvested 48-72 hours post infection. Samples of infected cells were then tested for expression of p101/p110γ PI3 kinase by immunoprecipitation and Western Blot analysis methods (see below).
To purify PI3Kγ, 4 volumes of room temperature hypotonic lysis buffer (1 mM MgCl2, 1 mM DTT, 5 mM EGTA, 1 mM Pefabloc, 0.5 μM aprotinin, 5 μM leupeptin, 2 μM pepstatin, 5 μM E64, pH 8) per gram of cell paste, was poured onto frozen cell pellets with stirring, then lysed in a nitrogen “bomb” at 400 psi (599HC T316, Parr Instrument Co, Moline, Ill.). NaCl was added to 150 mM, and sodium cholate was added to 1% and mixed for another 45 minutes. The lysates were clarified by centrifugation for 25 minutes at 14,000 rpm. The lysates were then loaded over anti-glu-linked Protein-G Sepaharose beads (Covance Research Products, Richmond, Calif.) using 20 mL resin/50 g cell paste. The column was washed with 15 volumes of wash buffer (1 mM DTT, 0.2 mM EGTA, 1 mM Pefabloc, 0.5 μM aprotinin, 5 μM leupeptin, 2 μM pepstatin, 5 μM E64, 150 mM NaCl, 1% sodium cholate, pH 8). PI3Kγ was eluted with 6 column volumes of wash buffer that contain 100 μg/mL of a peptide that competes for binding of the glu tag. The column fractions with the eluted protein (determined by taking OD280 readings) were collected and dialyzed in 0.2 mM EGTA, 1 mM DTT, 1 mM Pefabloc, 5 μM leupeptin, 0.5% sodium cholate, 150 mM NaCl, and 50% glycerol, pH 8. The fractions were stored at −80° C. until further use.
Spodtera frugiperda cells were coinfected with baculovirus expressing a glu-tagged G protein β1 and baculovirus expressing a G protein β2, at a 1:1 ratio of glu-tagged G protein β1 baculovirus to G protein β2 baculovirus. Sf9 cells are grown in 10 L bioreactors and harvested 48-72 hours post infection. Samples of infected cells were tested for G protein β1/β2 expression by Western Blot analysis, as described below. Cell lysates were homogenized and loaded onto a column of glu-tagged beads as in Biological Example 1 and competed off the column with a glu peptide and processed as described in Biological Example 1.
The inhibitory properties of the compounds in Table 1 were assayed in an in vitro PI3K assay. In a 96-well polypropylene plate, each well was spotted with 2 μL of 50 times the desired final concentration of compound in DMSO. Purified recombinant p101/p110γ protein (0.03 μg; ˜2.7 nM) and G protein β1/γ2 subunits (0.09 μg; ˜57.7 nM) for each reaction was combined in the assay buffer (30 mM HEPES, 100 mM NaCl, 1 mM EGTA, and 1 mM DTT). ATP and [γ-^32P-ATP] (0.09 μCi) were added to this mixture so that the final ATP concentration in the reaction was 20 μM. Lipid micelles were formed by sonicating phosphatidylinositol-4,5-diphosphate (PIP2), phosphatidylethanolamine (PE), and Na-cholate in the assay buffer for 10 minutes, adding MgCl2 and incubating on ice for 20 minutes, for final concentrations of 25 μM PIP2, 300 μM PE, 0.02% Na-cholate, and 10 mM MgCl2 in the reaction. The reactions were started by adding equal volumes lipid and enzyme mixture in a total volume of 50 μL, allowed to run for 20 minutes at room temperature, and stopped with 100 μL 75 mM H3PO4. The lipid product was transferred to a glass fiber filter plate and washed with 75 mM H3PO4 several times. The presence of radioactive lipid product (PIP3) was measured by adding Wallac Optiphase mix to each well and counting in a Wallac 1450 Trilux plate reader (PerkinElmer Life Sciences Inc., Boston, Mass. 02118). The IC50 for each compound tested is reported in μM in the Tables above.

T1 sequence (P48736 whole entry, species assumed): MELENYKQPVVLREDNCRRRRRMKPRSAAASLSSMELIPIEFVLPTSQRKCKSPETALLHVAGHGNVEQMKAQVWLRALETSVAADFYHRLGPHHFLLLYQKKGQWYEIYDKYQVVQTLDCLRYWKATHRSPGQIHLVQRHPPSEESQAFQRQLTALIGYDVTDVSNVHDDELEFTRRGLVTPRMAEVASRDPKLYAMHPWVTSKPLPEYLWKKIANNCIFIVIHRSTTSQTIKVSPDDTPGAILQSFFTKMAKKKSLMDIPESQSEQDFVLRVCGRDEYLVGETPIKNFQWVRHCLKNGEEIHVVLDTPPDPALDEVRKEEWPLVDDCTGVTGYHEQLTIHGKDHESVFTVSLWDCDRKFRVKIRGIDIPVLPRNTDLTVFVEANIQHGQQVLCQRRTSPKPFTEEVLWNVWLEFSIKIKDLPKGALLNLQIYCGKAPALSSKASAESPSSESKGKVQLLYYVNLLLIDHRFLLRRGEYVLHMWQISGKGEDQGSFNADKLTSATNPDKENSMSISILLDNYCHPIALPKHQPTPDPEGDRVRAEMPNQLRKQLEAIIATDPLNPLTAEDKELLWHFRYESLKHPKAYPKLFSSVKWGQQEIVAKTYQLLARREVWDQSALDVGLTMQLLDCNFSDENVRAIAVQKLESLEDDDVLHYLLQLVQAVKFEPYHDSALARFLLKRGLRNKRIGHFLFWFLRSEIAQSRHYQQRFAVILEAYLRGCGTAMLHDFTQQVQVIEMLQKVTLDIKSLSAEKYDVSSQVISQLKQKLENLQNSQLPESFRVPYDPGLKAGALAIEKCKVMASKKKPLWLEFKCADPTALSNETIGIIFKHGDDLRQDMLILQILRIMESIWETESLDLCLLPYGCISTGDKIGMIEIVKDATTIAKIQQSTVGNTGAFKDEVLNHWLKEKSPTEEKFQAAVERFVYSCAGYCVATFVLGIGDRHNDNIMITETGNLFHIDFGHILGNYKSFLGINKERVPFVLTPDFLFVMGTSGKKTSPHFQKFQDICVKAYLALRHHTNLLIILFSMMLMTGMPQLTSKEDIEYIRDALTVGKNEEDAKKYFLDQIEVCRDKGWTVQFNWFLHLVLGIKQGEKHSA
T1 sequence (Q8WYR1 whole entry partner, species assumed): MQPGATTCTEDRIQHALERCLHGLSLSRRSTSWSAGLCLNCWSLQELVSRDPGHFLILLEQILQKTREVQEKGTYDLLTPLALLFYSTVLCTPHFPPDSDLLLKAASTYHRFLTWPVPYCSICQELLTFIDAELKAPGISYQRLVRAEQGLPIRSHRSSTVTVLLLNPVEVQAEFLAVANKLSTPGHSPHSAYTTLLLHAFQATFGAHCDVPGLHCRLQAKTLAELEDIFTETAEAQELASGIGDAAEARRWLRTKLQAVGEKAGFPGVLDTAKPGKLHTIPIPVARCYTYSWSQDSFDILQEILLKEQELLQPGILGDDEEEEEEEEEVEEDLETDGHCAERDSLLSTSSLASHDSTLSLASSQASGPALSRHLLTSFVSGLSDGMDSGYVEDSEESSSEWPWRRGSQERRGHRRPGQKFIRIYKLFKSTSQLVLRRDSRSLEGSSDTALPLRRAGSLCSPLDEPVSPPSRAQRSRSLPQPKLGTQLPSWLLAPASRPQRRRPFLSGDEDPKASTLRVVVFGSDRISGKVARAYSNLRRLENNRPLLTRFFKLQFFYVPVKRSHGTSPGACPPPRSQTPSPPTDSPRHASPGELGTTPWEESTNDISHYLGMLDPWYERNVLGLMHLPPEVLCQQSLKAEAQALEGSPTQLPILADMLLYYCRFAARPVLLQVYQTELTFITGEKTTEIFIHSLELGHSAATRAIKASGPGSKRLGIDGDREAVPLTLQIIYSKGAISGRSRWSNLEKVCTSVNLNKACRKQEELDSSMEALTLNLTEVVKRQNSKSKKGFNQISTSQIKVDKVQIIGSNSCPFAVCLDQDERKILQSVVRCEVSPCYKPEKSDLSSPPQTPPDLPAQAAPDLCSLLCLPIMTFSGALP

IC50 [µM] | Structure (SMILES) | further results
20 | COC(=O)c1ccc(Sc2c(C(=O)Nc3nnn[nH]3)sc3ccc(OC)c(F)c23)cc1 [Example 26, 4-[4-Fluoro-5-methoxy-2-(1H-tetrazol-5-ylcarbamoyl)-benzo[b]thiophen-3-ylsulfanyl]-benzoic acid methyl ester] | 
14.2 | COC(=O)Cc1ccc(Sc2c(C(=O)Nc3nnn[nH]3)sc3ccc(OC)c(F)c23)cc1 [Example 27, {4-[4-Fluoro-5-methoxy-2-(1H-tetrazol-5-ylcarbamoyl)-benzo[b]thiophen-3-ylsulfanyl]-phenyl}-acetic acid methyl ester] | 
14.9 | COC(=O)CCc1ccc(Sc2c(C(=O)Nc3nnn[nH]3)sc3ccc(OC)c(F)c23)cc1 [Example 28, 3-{4-[4-Fluoro-5-methoxy-2-(1H-tetrazol-5-ylcarbamoyl)-benzo[b]thiophen-3-ylsulfanyl]-phenyl}-propionic acid methyl ester] | 
5.87 | COc1ccc2sc(C(=O)Nc3nnn[nH]3)c(Sc3cccc(Cl)c3)c2c1F [Example 31, 3-(3-Chloro-phenylsulfanyl)-4-fluoro-5-methoxy-benzo[b]thiophene-2-carboxylic acid (1H-tetrazol-5-yl)-amide] | 
5.94 | COc1cccc(Sc2c(C(=O)Nc3nnn[nH]3)sc3ccc(OC)c(F)c23)c1 [Example 32, 4-Fluoro-5-methoxy-3-(3-methoxy-phenylsulfanyl)-benzo[b]thiophene-2-carboxylic acid (1H-tetrazol-5-yl)-amide] | 
19.4 | COc1ccc(Sc2c(C(=O)Nc3nnn[nH]3)sc3ccc(OC)c(F)c23)cc1 [Example 33, 4-Fluoro-5-methoxy-3-(4-methoxy-phenylsulfanyl)-benzo[b]thiophene-2-carboxylic acid (1H-tetrazol-5-yl)-amide] | 
7.18 | COc1ccc2sc(C(=O)Nc3nnn[nH]3)c(Sc3ccc(CCC(=O)O)cc3)c2c1F [Example 36, 3-{4-[4-Fluoro-5-methoxy-2-(1H-tetrazol-5-ylcarbamoyl)-benzo[b]thiophen-3-ylsulfanyl]-phenyl}-propionic acid] | 
0.19 | COc1ccc2sc(C(=O)Nc3nnn[nH]3)c(SC3CCCC3)c2c1F [Example 38, 3-Cyclopentylsulfanyl-4-fluoro-5-methoxy-benzo[b]thiophene-2-carboxylic acid (1H-tetrazol-5-yl)-amide] | 
 | COc1ccc2c(SC3CCCC3)c(C(=O)Nc3nnn[nH]3)sc2c1F [Example 39, 3-Cyclopentylsulfanyl-7-fluoro-6-methoxy-benzo[b]thiophene-2-carboxylic acid (1H-tetrazol-5-yl)-amide] | IC50 (table b284): 0.016 µM
 | COc1cc2c(SC3CCCC3)c(C(=O)Nc3nnn[nH]3)sc2cc1F [Example 42, 3-Cyclopentylsulfanyl-6-fluoro-5-methoxy-benzo[b]thiophene-2-carboxylic acid (1H-tetrazol-5-yl)-amide] | IC50 (table b291): 0.011 µM
 | COc1cc2c(Oc3ccc(C4CCCCC4)cc3)c(C(=O)Nc3nn[nH]n3)sc2cc1Br [Example 43, 6-Bromo-3-(4-Cyclohexyl-phenoxy)-5-methoxy-benzo[b]thiophene-2-carboxylic acid (2H-tetrazol-5-yl)-amide] | IC50 (table b298): 0.38 µM
 | COc1cc2c(Oc3ccc(C4CCCCC4)cc3)c(C(=O)Nc3nn[nH]n3)sc2cc1Cl [Example 44, 6-Chloro-3-(4-Cyclohexyl-phenoxy)-5-methoxy-benzo[b]thiophene-2-carboxylic acid (2H-tetrazol-5-yl)-amide] | IC50 (table b298): 0.11 µM

Structure (SMILES) | IC50 [µM] | further results
COc1ccc2sc(C(=O)Nc3nnn[nH]3)c(Sc3ccc(C(=O)O)cc3)c2c1F [Example 34, 4-[4-Fluoro-5-methoxy-2-(1H-tetrazol-5-ylcarbamoyl)-benzo[b]thiophen-3-ylsulfanyl]-benzoic acid] | 5.95 | 

From US20050096350A1, “Halo substituted benzo[b]thiophenes as therapeutic agents” (priority 2003, published 2005)
